Reference: paper PMC2710614 (Chemistry & biology, 2009)

Molecular target: TrpRS (Escherichia coli, UniProt P00954)
Assay: ATP-PPi exchange of gamma-18O4-ATP, MALDI-TOFMS
Format: biochemical
Details: 1 mM amino acid, 1 mM gamma-18O4-ATP, 5 mM MgCl2, 5 mM PPi, 20 mM Tris pH 7.5, 30 min at 25 °C

## N[C@@H](Cc1c[nH]c2ccccc12)C(=O)O [Trp]
  %γ-^18O4-ATP exchange: 9.7 ± 1.6%
